Experiment [1] deals with CMII (bovine cardiac myosin II, MYH7) (Bos taurus, UniProt Q9BE39). The experiment can be described thus: NADH-linked ATPase assay, quadratic […] binding fit. The format is biochemical.
Experiment [2] has as its target SkMII (skeletal muscle myosin II). The description is as above. It counts as biochemical.

pKi: −log10 of the molar value.

Data on four compounds can be found in article doi:10.1101/2020.07.28.225383v1 (biorxiv, 2020).

CMII (bovine cardiac myosin II, MYH7), sequence (Q9BE39 whole entry): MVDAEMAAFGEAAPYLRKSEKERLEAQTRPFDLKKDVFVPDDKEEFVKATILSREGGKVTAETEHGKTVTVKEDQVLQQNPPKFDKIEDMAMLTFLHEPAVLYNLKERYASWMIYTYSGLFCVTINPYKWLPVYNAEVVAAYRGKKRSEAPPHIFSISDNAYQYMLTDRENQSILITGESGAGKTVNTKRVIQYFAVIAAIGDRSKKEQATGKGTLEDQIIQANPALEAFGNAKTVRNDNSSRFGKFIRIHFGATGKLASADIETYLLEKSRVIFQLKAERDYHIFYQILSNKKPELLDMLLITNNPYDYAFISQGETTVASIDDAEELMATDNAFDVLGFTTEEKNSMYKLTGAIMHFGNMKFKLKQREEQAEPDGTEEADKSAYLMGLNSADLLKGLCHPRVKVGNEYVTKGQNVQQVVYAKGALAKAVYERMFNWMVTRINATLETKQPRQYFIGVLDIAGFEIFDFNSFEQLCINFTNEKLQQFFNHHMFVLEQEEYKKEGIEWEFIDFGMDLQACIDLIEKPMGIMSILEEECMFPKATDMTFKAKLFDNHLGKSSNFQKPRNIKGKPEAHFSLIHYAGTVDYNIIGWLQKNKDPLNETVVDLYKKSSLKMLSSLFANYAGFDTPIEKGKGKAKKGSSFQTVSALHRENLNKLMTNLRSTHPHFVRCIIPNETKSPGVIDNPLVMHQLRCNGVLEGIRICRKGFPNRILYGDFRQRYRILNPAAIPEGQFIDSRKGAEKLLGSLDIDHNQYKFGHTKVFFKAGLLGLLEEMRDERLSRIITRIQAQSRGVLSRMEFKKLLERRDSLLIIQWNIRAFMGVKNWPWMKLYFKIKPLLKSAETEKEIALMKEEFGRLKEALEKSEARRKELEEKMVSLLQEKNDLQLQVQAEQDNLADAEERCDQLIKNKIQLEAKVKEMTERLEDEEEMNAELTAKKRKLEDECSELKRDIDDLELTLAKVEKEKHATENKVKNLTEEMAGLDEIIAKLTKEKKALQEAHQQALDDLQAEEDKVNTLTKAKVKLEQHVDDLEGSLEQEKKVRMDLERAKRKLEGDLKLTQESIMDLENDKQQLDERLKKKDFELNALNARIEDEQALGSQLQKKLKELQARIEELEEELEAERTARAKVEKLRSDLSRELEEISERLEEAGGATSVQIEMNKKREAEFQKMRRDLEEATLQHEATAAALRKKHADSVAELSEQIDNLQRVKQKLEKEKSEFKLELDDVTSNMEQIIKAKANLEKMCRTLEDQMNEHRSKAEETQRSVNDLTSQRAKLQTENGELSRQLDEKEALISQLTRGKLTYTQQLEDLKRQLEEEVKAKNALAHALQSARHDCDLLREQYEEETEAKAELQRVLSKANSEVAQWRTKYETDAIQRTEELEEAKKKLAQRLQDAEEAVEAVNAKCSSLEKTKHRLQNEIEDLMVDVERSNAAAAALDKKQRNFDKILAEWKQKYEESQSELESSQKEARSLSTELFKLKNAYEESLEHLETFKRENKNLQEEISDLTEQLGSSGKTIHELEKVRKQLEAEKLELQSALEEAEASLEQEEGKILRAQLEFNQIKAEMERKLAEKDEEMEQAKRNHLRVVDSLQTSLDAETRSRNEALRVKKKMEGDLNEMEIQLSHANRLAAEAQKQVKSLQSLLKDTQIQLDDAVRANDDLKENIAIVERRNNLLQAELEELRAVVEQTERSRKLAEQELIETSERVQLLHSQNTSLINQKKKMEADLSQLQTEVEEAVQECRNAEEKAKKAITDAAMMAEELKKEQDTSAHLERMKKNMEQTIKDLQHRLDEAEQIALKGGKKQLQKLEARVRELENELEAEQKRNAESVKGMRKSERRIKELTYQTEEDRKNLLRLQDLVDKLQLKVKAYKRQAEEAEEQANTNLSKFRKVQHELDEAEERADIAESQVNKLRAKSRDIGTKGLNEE

Consider `Cc1ccc2c(c1)C(=O)[C@]1(O)CCN(c3ccccc3)C1=N2` [Blebbistatin], for which the results for the negative logarithm of the Ki (pKi) in experiment [1] and in experiment [2] were 5.72 and 6.55, respectively.

Take `Cc1ccc2c(c1)C(=O)[C@]1(O)CCN(c3cnc4nc(C)oc4c3)C1=N2` [Skeletostatin 1, (S)-3a-hydroxy-6-methyl-1-(2-methyloxazolo[4,5-b]pyridin-6-yl)-1,2,3,3a-tetrahydro-4H-pyrrolo[2,3-b]quinolin-4-one]: the pKi – broadly, the negative decadic logarithm of the Ki, by convention in mol/L – in experiment [1] was 4.08; in experiment [2], 6.32.

Regarding `CC(=O)Nc1ccc(N2CC[C@@]3(O)C(=O)c4cc(C)ccc4N=C23)cc1` [Skeletostatin 2, (S)-N-(4-(3a-hydroxy-6-methyl-4-oxo-2,3,3a,4-tetrahydro-1H-pyrrolo[2,3-b]quinolin-1-yl)phenyl)acetamide], the pKi was 4.47 in experiment [1] and 6.57 in experiment [2].

As for `Cc1ccc2c(c1)C(=O)[C@]1(O)CCN(c3ccc(N4CCOCC4)cc3)C1=N2` [Skeletostatin 3, (S)-3a-hydroxy-6-methyl-1-(4-morpholinophenyl)-1,2,3,3a-tetrahydro-4H-pyrrolo[2,3-b]quinolin-4-one], the pKi in experiment [1] is less than 4.25; in experiment [2], 6.10.
